Measurements taken from patent US20090123373A1, “AMYLOID-IMAGING AGENTS” (priority 2007, published 2009).
Values belong to the compound of their own block, whether it stands above or below them.

Key:
[1] = target: β-amyloid (AD brain homogenates) (Homo sapiens, UniProt P05067); assay: Competitive binding assay with [3H]PIB in AD brain homogenates
Method: Binding was assayed in 12×75 mm borosilicate glass tubes. […] The resulting mixture was incubated at 37° C. for 1 h, and the bound and free radioligands were separated by rapid vacuum filtration through Whatman GF/B glass filter paper using a Brandel M-24R cell harvest and rapidly washed three times at room temperature with PBS. The filters containing the bound radioactivity were transferred to special vials containing 3 ml of universal scintillation fluid. Vials were counted using Beckman LS6500 multi-purpose scintillation counter. Specific binding was estimated as the difference between total and nonspecific binding. Under the assay conditions, the specifically bound fraction was less than 15% of the total radioactivity. The results were subjected to nonlinear regression analysis using software GraphPad Prism by which Kd and Ki values were calculated.
The postmortem brain tissues were obtained from well-defined AD patients. The gray matter was then carefully separated from white matter at autopsy and kept in −70° C. The fresh frozen gray matter was then homogenized by milling it thoroughly in a mortar in the presence of liquid nitrogen. The homogenates were then prepared in phosphate-buffered saline (PBS, pH 7.4) at a concentration of approximately 400 mg tissue/ml, aliquoted into 1-ml portions, and stored
According to the in vitro binding assays, functional groups have moderate effects on the binding affinity. […] In addition, methylation of the amino group increased the binding affinity.

[2] = Partition coefficient determination (n-octanol/PBS); assay type: physicochemical; conditions: n-octanol / PBS 0.1 M pH 7.4, room temperature, triplicate
Method: Partition coefficients were measured by mixing [^125I] 18 (10 μl, RCP>98%, approximately 50,0000 cpm) with sodium phosphate buffer (PBS, 3 g, 0.1 M, pH 7.4) and
n-octanol (3 g, 3.65 ml) in test tubes. The tubes were vortexed for 3 min (1 min 3×) at room temperature followed by centrifugation at 3500 rpm for 5 min. Then 1 ml of buffer and 1 ml of n-octanol were taken out, weighed, and counted. The partition coefficient was determined by calculating the ratio of cpm/g of n-octanol to that of PBS and expressed as logP oct=log [cpm/g (n-octanol)/cpm/g(PBS)]. Another 2 ml from the rest of n-octanol layer was taken out and repartitioned in a tube previously containing 3 g PBS and 1.65 ml of n-octanol until consistent partitions of the coefficient values were obtained. All assays were performed in triplicate.
Based on the conventional octanol-water partition measurement, the lipophilicity of [^125I] 18 was determined in terms of partition coefficients (logP oct). The logP oct of [^125I] 18 was found at 2.70 and the logP oct values of other dibenzothiazole derivatives were then estimated based on coefficients determined by Hansch and Leo (A substituent Constants for Correlation Analysis in Chemistry and Biology (1979) 1st ed.).

[3] = Brain uptake in normal mice after iv injection; assay type: in vivo, mice (Swiss-Webster); conditions: for Brain uptake in mice, 2 min. / Brain uptake in mice, 30 min. / Brain uptake in mice, 60 min.: n = 3, iv tail vein, 0.185 MBq; for Brain uptake in mice, 2 min.: 2 min postinjection; for Brain uptake in mice, 30 min.: 30 min postinjection; for Brain uptake in mice, 60 min.: 60 min postinjection
Method: The radiolabeled ligand [^125I] 18 eluted from C-18 Sep-Pak™ plus cartridge was dissolved in a mixture consisting of saline (2 ml, 9 mg/ml), ethylene glycol (2 ml), ethanol (0.7 ml), and HCl (0.3 ml, […]). Under anesthesia, 0.1 ml of the above solution containing 0.185 MBq of radioactive tracer was administered to the mice through a tail vein injection (Swiss-Webster, n=3, 2 months old). The mice were then sacrificed by a heart puncture at 2, 30, and 60 min postinjection. The brain was rapidly removed, weighed, and counted. The uptake of brain was expressed as percentage of injection dose per gram.
For potential in vivo imaging studies, we radiolabeled compound […] with ^125I for brain uptake studies. Following a single iv injection of [^125I] 18 ([…], 0.185 MBq), the brain permeability was evaluated in normal mice. The brain radioactivity concentration of [^125I] 18 was determined at 2, 30, and 60 min postinjection. […] The initial brain uptake was 3.71±0.63% ID/g at 2 min postinjection, a level that is considered for potential clinical imaging studies. The brain radioactivity concentration decreased sharply to 0.78±0.14% ID/g at 30 min and 0.43±0.12% ID/g at 60 min, with a 2-to-30 min ratio of 5. […] 18 was just as low as it rapidly clears from the normal mouse brain in the absence of amyloid deposits.

[4] = Storage stability of the radioligand; assay type: physicochemical
Method: 20-30% after HPLC purification. [^125I] 18 was obtained with a radiochemical purity over 98% and a specific activity near the theoretical limit (80 TBq/mmol) based on the no-carrier added sodium [^125I] iodide. The radiochemical identity of [^125I] 18 was verified by co-elution with the non-radioactive cold standard 18 on HPLC profiles. [^125I] 18 was stable enough to be kept for up to 8 h at room temperature and for up to 2 months in the refrigerator.

Chain of β-amyloid (AD brain homogenates) (P05067 672-711 limits assumed): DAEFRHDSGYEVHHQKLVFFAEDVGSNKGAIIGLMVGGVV

Structure (SMILES): Nc1ccc(-c2nc3ccc(-c4nc5ccccc5s4)cc3s2)cc1 [Compound 10]
Ki [1]: 6.8 to 36 nM

Structure (SMILES): Nc1ccc(-c2nc3ccc(-c4nc5ccc(F)cc5s4)cc3s2)cc1 [Compound 12]
Ki [1]: 6.8 to 36 nM

Structure (SMILES): COc1ccc2nc(-c3ccc4nc(-c5ccc(N)cc5)sc4c3)sc2c1 [Compound 13]
Ki [1]: 6.8 to 36 nM

Structure (SMILES): Nc1ccc(-c2nc3ccc(-c4nc5ccccc5s4)cc3s2)cc1I [Compound 18, 4-[2,6′]dibenzothiazolyl-2′-yl-2-iodo-phenylamine]
Ki [1]: 6.8 to 36 nM

Structure (SMILES): CN(C)c1ccc(-c2nc3ccc(-c4nc5ccc(F)cc5s4)cc3s2)cc1 [Compound 17, [4-(6-fluoro-[2,60]dibenzothiazolyl-20-yl)-phenyl]-dimethylamine]
Ki [1]: 6.8 to 36 nM

Structure (SMILES): CNc1ccc(-c2nc3ccc(-c4nc5ccc(F)cc5s4)cc3s2)cc1 [Compound 16, [4-(6-fluoro-[2,60]dibenzothiazolyl-20-yl)-phenyl]-methylamine]
Ki [1]: 6.8 to 36 nM

Results, then the compound that gave them:

Ki [1]: 6.8 to 36 nM
Structure (SMILES): Nc1ccc(-c2nc3ccc(-c4nc5ccc(Cl)cc5s4)cc3s2)cc1 [Compound 11]

Ki [1]: 6.8 to 36 nM
Structure (SMILES): CNc1ccc(-c2nc3ccc(-c4nc5ccc(Cl)cc5s4)cc3s2)cc1 [Compound 15]

logP [2]: 2.7
2-to-30 min ratio of brain radioactivity concentration ([3]; iv): 5
Brain uptake in mice, 2 min. [3]: 3.71 ± 0.63 % ID/g
Brain uptake in mice, 2 min. ([3]; listed as [^125I] 18): 3.71±0.63 % ID/g
Brain uptake in mice, 30 min. [3]: 0.78 ± 0.14 % ID/g
Brain uptake in mice, 30 min. ([3]; listed as [^125I] 18): 0.78±0.14 % ID/g
Brain uptake in mice, 60 min. [3]: 0.43 ± 0.12 % ID/g
Brain uptake in mice, 60 min. ([3]; listed as [^125I] 18): 0.43±0.12 % ID/g
Stability, time it can be kept ([4]; in the refrigerator): up to 2 months
Stability, time it can be kept ([4]; room temperature): up to 8 h
Structure (SMILES): Nc1ccc(-c2nc3ccc(-c4nc5ccccc5s4)cc3s2)cc1[125I] [[^125I]18, 4-[2,6′]dibenzothiazolyl-2′-yl-2-^125I-phenylamine]

Ki [1]: 6.8 to 36 nM
Structure (SMILES): CNc1ccc(-c2nc3ccc(-c4nc5ccccc5s4)cc3s2)cc1 [Compound 14]
